Experimental data taken from patent US4677108A, “4-oxo-pyrido[2,3-d]pyrimidinone derivatives” (Warner-Lambert Company, priority 1984, dated 1987).
Blank lines part the entries; values can stand above or below the molecule they belong to.

Key:
[1] = test system: a. basilaris (arteria basilaris); assay: Isolated smooth muscle: inhibition of K+-depolarization contraction of vessel rings, a. basilaris; design: species or system rabbit; conditions: organ bath, mean diameter 0.5-1.0 mm, read-out: Concentration (IC50) effecting a semimaximal inhibition of the K+-depolarization contraction of vessel rings, a. basilaris
From the text: (§1) Of rabbits (vessel ring segments, a basilaris, a. coronaria, a. saphena) are mounted in an organ bath in a way to allow the measurement of isometric contractions. Contractile activity is elicited by a potassium depolarization in Tyrode's solution. This experimetnal set-up is a well known standard model for the identification of substances blocking the calcium channels opened during the potassium depolarization (Fleckenstein,Calcium Antagonism in Heart and Smooth Muscle, J. Wiley & Sons, 1983).
(§2) Concentrations (IC50, mol/l) of compounds
(§3) effecting a semimaximal inhibition of the K+-
(§4) depolarization contraction of vessel rings in the
(§5) organ bath. A. bas. = arteria basilaris, a. cor. =
(§6) arteria coronaria, a. saph. = arteria saphena of
(§7) the rabbit; mean diameter 0.5-1.0 mm.

[2] = test system: a. saphena (arteria saphena); assay: Isolated smooth muscle: inhibition of K+-depolarization contraction of vessel rings, a. saphena; design: species or system rabbit; conditions: Oryctolagus cuniculus, organ bath, mean diameter 0.5-1.0 mm, read-out: Concentration (IC50) effecting a semimaximal inhibition of the K+-depolarization contraction of vessel rings, a. saphena
From the text: as §1, §2, §3, §4, §5, §6, §7

[3] = test system: isolated papillary muscles of the guinea-pig; assay: Isolated papillary muscles: changes in the contraction amplitude; conditions: field excitation 250/minute; for activation at 1 µM: at ED100, read-out: Δ% (percent change of contraction amplitude versus control) at ED100; for EC100: read-out: ED100 (effective concentration, maximal effect), contraction amplitude; for EC50: read-out: ED50 (effective concentration, semimaximal effect), contraction amplitude
From the text: Papillary muscles from the left ventricle of the guinea-pig are mounted, like isolated vessels, in an organ bath in a way to allow the measurement of isometric contractions. Electric excitation is achieved by means of field excitation at a frequency of 250/minute (duration of excitation 10 msec., amplitude supramaximal).
Changes in the contraction amplitude of isolated
papillary muscles of the guinea-pig (excitation
frequency 250/minute, duration of excitation 10 msec.,
excitation amplitude 10-20 V field excitation). IC =
inhibition concentration, ED = effective concentration
in mol/l. Indices 50 and 100 correspond to semi-
maximal and maximal effect. Δ% = percent change of
contraction amplitude versus control.

[4] = test system: a. coronaria (arteria coronaria); assay: Isolated smooth muscle: inhibition of K+-depolarization contraction of vessel rings, a. coronaria; design: species or system rabbit; conditions: organ bath, mean diameter 0.5-1.0 mm, read-out: Concentration (IC50) effecting a semimaximal inhibition of the K+-depolarization contraction of vessel rings, a. coronaria
From the text: as §1, §2, §3, §4, §5, §6, §7

[5] = test system: rats anesthetized with inactin; assay: Anesthetized rat (inactin): blood pressure and heart rate; format: in vivo; conditions: 100 mg/kg ID (n=3)
Experimental: This test model using rats anesthetized with inactin served to test Example Number 1a in a dosage of 100 mg/kg ID (n=3). The heart rate remained unchanged whereas the blood pressure fell by 40% below the starting value (75 minutes PA).

[6] = test system: spontaneously hypertensive rats (SHR); assay: Spontaneously hypertensive rat: systolic blood pressure after oral administration; format: in vivo
From the text: This test model employing hypertension of genetic origin served to test Example Number 1(a) for its antihypertensive efficacy.
Effect of Example Number 1a on the systolic blood
pressure of spontaneously hypertensive rats (SHR)

[7] = Cavia porcellus, 10 msec., 10-20 V, maximal effect
[8] = Cavia porcellus, 10 msec., 10-20 V, semimaximal effect

IC50 [1]: 20 µM
IC50 [2]: 9 µM
EC50 [3, 8]: 0.022 µM
IC50 [4]: 20 µM
SMILES: CCOC(=O)C1=C(C)Nc2ncn(C(C)C)c(=O)c2C1c1ccccc1F (racemic) [Example 3, (±)-5-(2-Fluorophenyl)-3,4,5,8-tetrahydro-3-isopropyl-7-methyl-4-oxo-pyrido[2,3-d]pyrimidine-6-carboxylic acid ethyl ester]
activation at 1 µM ([3]; Cavia porcellus): 30%
EC100 [3, 7]: 1 µM
Δ% (percent change of contraction amplitude versus control) at ED50 [3]: +15%

IC50 [1]: 1.8 µM
IC50 [2]: 1.2 µM
EC50 [3, 8]: 0.015 µM
IC50 [4]: 1.5 µM
SMILES: CCOC(=O)C1=C(C)Nc2nc[nH]c(=O)c2C1c1ccccc1F (racemic) [Example 1a, (±)-5-(2-Fluorophenyl)-3,4,5,8-tetrahydro-7-methyl-4-oxo-pyrido[2,3-d]pyrimidine-6-carboxylic acid ethyl ester]
heart rate [5]: unchanged
blood pressure fell below the starting value ([5]; 75 minutes PA): 40%
Change of systol. blood pressure in percent ([6]; 12.5 mg/kg oral, 30 min.): -11%
Change of systol. blood pressure in percent ([6]; 12.5 mg/kg oral, 120 min.): -4%
Change of systol. blood pressure in percent ([6]; 12.5 mg/kg oral, 240 min.): +2%
Change of systol. blood pressure in percent ([6]; 12.5 mg/kg oral, 24 h): -1%
Change of systol. blood pressure in percent ([6]; 25 mg/kg oral, 30 min.): -24%
Change of systol. blood pressure in percent ([6]; 25 mg/kg oral, 120 min.): -2%
Change of systol. blood pressure in percent ([6]; 25 mg/kg oral, 240 min.): -1%
Change of systol. blood pressure in percent ([6]; 25 mg/kg oral, 24 h): +5%
Change of systol. blood pressure in percent ([6]; 50 mg/kg oral, 30 min.): -32%
Change of systol. blood pressure in percent ([6]; 50 mg/kg oral, 120 min.): -8%
Change of systol. blood pressure in percent ([6]; 50 mg/kg oral, 240 min.): +1%
Change of systol. blood pressure in percent ([6]; 50 mg/kg oral, 24 h): +4%
Change of systol. blood pressure in percent ([6]; 100 mg/kg oral, 30 min.): -40%
Change of systol. blood pressure in percent ([6]; 100 mg/kg oral, 120 min.): -19%
Change of systol. blood pressure in percent ([6]; 100 mg/kg oral, 240 min.): +2%
Change of systol. blood pressure in percent ([6]; 100 mg/kg oral, 24 h): -4%
antihypertensive effect after oral administration ([6]; oral, result in words): good and, dose-dependent, lasting antihypertensive effect
activation at 1 µM ([3]; Cavia porcellus): 52%
EC100 [3, 7]: 1 µM
Δ% (percent change of contraction amplitude versus control) at ED50 [3]: +26%

Continued, molecule first:

SMILES: CCOC(=O)C1=C(C)Nc2nc[nH]c(=O)c2C1c1ccccc1 (racemic) [Example 1, (±)-3,4,5,8-Tetrahydro-7-methyl-4-oxo-5-phenylpyrido[2,3-d]pyrimidine-6-carboxylic acid ethyl ester]
IC50 [1]: 8 µM
IC50 [2]: 7 µM
inhibition at 100 µM ([3]; Cavia porcellus, at IC100, read-out: Δ% (percent change of contraction amplitude versus control) at IC100): 27%
IC100 ([3]; Cavia porcellus, 10 msec., 10-20 V, maximal effect, read-out: IC100 (inhibition concentration, maximal effect), contraction amplitude): 100 µM
IC50 ([3]; Cavia porcellus, 10 msec., 10-20 V, semimaximal effect, read-out: IC50 (inhibition concentration, semimaximal effect), contraction amplitude): 20 µM
Δ% (percent change of contraction amplitude versus control) at IC50 ([3]; at IC50): -13%
IC50 [4]: 10 µM

SMILES: CCOC(=O)C1=C(C)Nc2ncn(C(C)C)c(=O)c2C1c1ccccc1 (racemic) [Example 3a, (±)-3,4,5,8-Tetrahydro-3-isopropyl-7-methyl-4-oxo-5-phenyl-pyrido[2,3-d]pyrimidine-6-carboxylic acid ethyl ester]
IC50 [1]: 0.04 µM
IC50 [4]: 0.045 µM

SMILES: CCOC(=O)C1=C(C)Nc2nc[nH]c(=O)c2C1c1ccccc1[N+](=O)[O-] (racemic) [Example 1b, (±)-3,4,5,8-Tetrahydro-7-methyl-5-(2-nitrophenyl)-4-oxo-pyrido[2,3-d]pyrimidine-6-carboxylic acid ethyl ester]
IC50 [1]: ~0.4 µM
IC50 [4]: ~1 µM
